Source: the CheMixHub viscosity set

Assay: xn = mol fraction of the nth substance listed

CCCCCCCCCCO + CCC(C)=O
viscosity [mPa·s], 100 kPa
Settings | x2 = 0.0798 | x2 = 0.1601 | x2 = 0.2392 | x2 = 0.3498 | x2 = 0.4401 | x2 = 0.5602 | x2 = 0.6496 | x2 = 0.7411 | x2 = 0.8502 | x2 = 0.9406
293.15 K | 11.4 | 8.94 | 7.3 | 5.65 | 4.57 | 3.24 | 2.34 | 1.68 | 1.01 | 0.6
303.15 K | 7.99 | 6.34 | 4.92 | 3.65 | 2.75 | 2 | 1.52 | 1.11 | 0.74 | 0.49
313.15 K | 5.31 | 4.24 | 3.39 | 2.42 | 1.88 | 1.39 | 1.1 | 0.82 | 0.58 | 0.4
323.15 K | 3.95 | 3.23 | 2.64 | 1.93 | 1.52 | 1.13 | 0.87 | 0.66 | 0.48 | 0.36

OCCOCCOCCO + CC(C)O
viscosity [mPa·s], 100 kPa
Settings | x1 = 0.081 | x1 = 0.1598 | x1 = 0.2401 | x1 = 0.3501 | x1 = 0.44 | x1 = 0.5601 | x1 = 0.6501 | x1 = 0.74 | x1 = 0.8498 | x1 = 0.9398
293.15 K | 4.61 | 6.73 | 9.06 | 12.51 | 15.58 | 20.36 | 24.67 | 29.58 | 36.45 | 43.07
298.15 K | 3.54 | 5.11 | 6.84 | 9.44 | 11.82 | 15.58 | 18.9 | 22.75 | 28.15 | 33.34
303.15 K | 3.21 | 4.58 | 5.98 | 8.15 | 10.07 | 13.01 | 15.62 | 18.54 | 22.62 | 26.49
308.15 K | 2.65 | 3.73 | 4.95 | 6.7 | 8.26 | 10.68 | 12.73 | 15.05 | 18.28 | 21.38
313.15 K | 2.22 | 3.12 | 4.05 | 5.45 | 6.71 | 8.67 | 10.32 | 12.22 | 14.86 | 17.32
318.15 K | 1.97 | 2.79 | 3.63 | 4.83 | 5.88 | 7.5 | 8.82 | 10.32 | 12.42 | 14.36
323.15 K | 1.8 | 2.54 | 3.32 | 4.44 | 5.39 | 6.74 | 7.86 | 9.07 | 10.68 | 12.14

CCCCCCCCCCO + CCCCCCCC
298.15 K, 101.3 kPa
Settings | viscosity [mPa·s]
x1 = 0.0592 | 0.601
x1 = 0.11 | 0.678
x1 = 0.1555 | 0.769
x1 = 0.2012 | 0.876
x1 = 0.2553 | 1.032
x1 = 0.303 | 1.194
x1 = 0.4085 | 1.665
x1 = 0.5085 | 2.311
x1 = 0.6109 | 3.244
x1 = 0.7126 | 4.541
x1 = 0.7879 | 5.827
x1 = 0.8535 | 7.233
x1 = 0.9129 | 8.795
x1 = 0.9391 | 9.583

CCC#N + CCCCOC(C)=O
303.15 K, 101.33 kPa
Settings | viscosity [mPa·s]
x1 = 0.11 | 0.6161
x1 = 0.2014 | 0.5958
x1 = 0.2942 | 0.5799
x1 = 0.4034 | 0.5557
x1 = 0.5034 | 0.5332
x1 = 0.594 | 0.5076
x1 = 0.7008 | 0.4785
x1 = 0.798 | 0.4496
x1 = 0.8966 | 0.419

COCCOCCO + CC1COC(=O)O1
298.15 K, 101.33 kPa
Settings | viscosity [mPa·s]
x1 = 0.0342 | 2.506
x1 = 0.0633 | 2.515
x1 = 0.0849 | 2.524
x1 = 0.1101 | 2.537
x1 = 0.1406 | 2.548
x1 = 0.1617 | 2.559
x1 = 0.1739 | 2.568
x1 = 0.2188 | 2.601
x1 = 0.2694 | 2.645
x1 = 0.3234 | 2.698
x1 = 0.3696 | 2.751
x1 = 0.3809 | 2.771
x1 = 0.4421 | 2.844
x1 = 0.4715 | 2.886
x1 = 0.5373 | 2.97
x1 = 0.5688 | 3.011
x1 = 0.6187 | 3.063
x1 = 0.6576 | 3.108
x1 = 0.7503 | 3.217
x1 = 0.7761 | 3.248
x1 = 0.7996 | 3.269
x1 = 0.8142 | 3.282
x1 = 0.8452 | 3.313
x1 = 0.9062 | 3.367
x1 = 0.9414 | 3.404
x2 = 0.0198 | 3.432

NC(N)=O + c1ccncc1
Settings | viscosity [mPa·s]
298.15 K, 101 kPa, x1 = 0.012 | 0.939

CC(C)[C@@H]1CC[C@@H](C)C[C@H]1O + CCCCCCCCCCO
Settings | viscosity [mPa·s]
298.15 K, 101.33 kPa, x1 = 0.5 | 21.24

CCCCCCCCCCCC + COC(=O)OC
298.15 K, 101.3 kPa
Settings | viscosity [mPa·s]
x2 = 0.0451 | 1.266
x2 = 0.0943 | 1.206
x2 = 0.1375 | 1.157
x2 = 0.225 | 1.079
x2 = 0.3467 | 0.977
x2 = 0.4784 | 0.877
x2 = 0.6212 | 0.775
x2 = 0.7364 | 0.697
x2 = 0.8599 | 0.633
x2 = 0.9441 | 0.602

CCCCCCCCCCO + COC(=O)OC
viscosity [mPa·s], 100 kPa
Settings | x2 = 0.1001 | x2 = 0.2001 | x2 = 0.3 | x2 = 0.4 | x2 = 0.5002 | x2 = 0.6 | x2 = 0.7001 | x2 = 0.8 | x2 = 0.9
303.15 K | 7.04 | 5.107 | 3.812 | 2.818 | 2.121 | 1.582 | 1.196 | 0.901 | 0.683
308.15 K | 5.988 | 4.394 | 3.309 | 2.477 | 1.885 | 1.423 | 1.084 | 0.831 | 0.637
313.15 K | 5.091 | 3.804 | 2.897 | 2.191 | 1.686 | 1.288 | 0.991 | 0.772 | 0.596
318.15 K | 4.385 | 3.313 | 2.552 | 1.953 | 1.519 | 1.167 | 0.913 | 0.716 | 0.559
323.15 K | 3.777 | 2.903 | 2.258 | 1.751 | 1.37 | 1.069 | 0.843 | 0.667 | 0.526

NC(N)=O + CC(C)O
viscosity [mPa·s], 101 kPa
Settings | 293.15 K | 298.15 K | 303.15 K | 308.15 K | 313.15 K | 318.15 K | 323.15 K
x1 = 0.02132 | 2.552 | 2.196 | 1.899 | 1.65 | 1.44 | 1.262 | 1.111
x1 = 0.02695 | 2.58 | 2.22 | 1.92 | 1.669 | 1.457 | 1.277 | 1.124
x1 = 0.03401 | 2.6 | 2.243 | 1.944 | 1.693 | 1.481 | 1.301 | 1.147
